From US20250026724A1, “(1,4,5-TRISUBSTITUTED 1H-PYRAZOL-3-YL)OXY-2-ALKYLTHIOALKYL ACIDS AND -ALKYL ACID DERIVATIVES, SALTS THEREOF AND USE THEREOF AS ACTIVE HERBICIDAL INGREDIENTS” (BAYER AKTIENGESELLSCHAFT, priority 2021, published 2025)

Each compound was assayed on Bassia scoparia (KCHSC) (assay: Post-emergence herbicidal action, greenhouse pot trial). Conditions: Bassia scoparia, 504 h, 320 g/ha, read-out: Post-emergence effect against KCHSC.
Assay type: in vivo
Procedure: (§1) Seeds of monocotyledonous and dicotyledonous weeds and crop plants are placed in sandy loam in plastic or organic planting pots, covered with soil and cultivated in a greenhouse under controlled growth conditions. 2 to 3 weeks after sowing, the trial plants are treated at the one-leaf stage. The compounds of the invention, formulated in the form of wettable powders (WP) or as emulsion concentrates (EC), are then sprayed onto the green parts of the plants as aqueous suspension or emulsion with addition of 0.5% additive at a water application rate equivalent to 600 l/ha. After about 3 weeks of keeping the trial plants in the greenhouse under optimum growth conditions, the effect of the preparations is rated visually in comparison to untreated controls. For example, 100% activity=the plants have died, 0% activity=like control plants.
(§2) Tables B1 to B14 below show the effects of selected compounds of the general formula (I) according to Table 1 on various harmful plants and at an application rate corresponding to 320 g/ha or lower, which were obtained by the trial procedure specified above. The appendices “a”, “b” and “c” give differentiation by dosage used with otherwise the same harmful plants tested.
(§3) As shown by results from Tables B1 to B19, inventive compounds of the general formula (I) in the case of post-emergence treatment have good herbicidal efficacy against harmful plants, for example Abutilon theophrasti (ABUTH), Alopecurus myosuroides (ALOMY), Amaranthus retroflexus (AMARE), Avena fatua (AVEFA), Digitaria sanguinalis (DIGSA), Echinochloa crus-galli (ECHCG), Bassia scoparia (KCHSC), Lolium rigidum (LOLRI), Matricaria inodora (MATIN), Pharbitis purpurea (PHBPU), Polygonum convolvulus (POLCO), Setaria viridis (SETVI), Veronica persica (VERPE) and Viola tricolor (VIOTR) at an application rate of 320 g of active substance or less per hectare, and good crop plant compatibility in the case of organisms such as Oryza sativa (ORYSA), Zea mays (ZEAMX), Brassica napus (BRSNW), Glycine max (GLXMA) and Triticum aestivum (TRZAS) at an application rate of 320 g or less per hectare.

SMILES	pest or weed control at 320 g/ha [%]
COC(=O)C(Oc1nn(-c2ncccc2F)c(-c2ccc(F)nc2)c1Cl)SC (stereo not shown) [Example I-56]	80

The compounds below were run on Alopecurus myosuroides (ALOMY) in the same assay as above. Conditions: Alopecurus myosuroides, 504 h, 320 g/ha, visual rating after about 3 weeks, read-out: Post-emergence effect at 320 g/ha against ALOMY in %.
Assay type: in vivo
Procedure: as §1, §2, §3

SMILES	pest or weed control at 320 g/ha [%]
CCOC(=O)C(Oc1nn(-c2ccccc2F)c(-c2ccc(F)nc2)c1Br)SC (single isomer, unassigned) [Example I-30]	90
COC(=O)C(Oc1nn(-c2ncccc2F)c(-c2ccc(F)nc2)c1Cl)SC (stereo not shown) [Example I-56]	80

The compounds below were run on Matricaria inodora (MATIN) in the same assay as above. Conditions: Tripleurospermum inodorum, 504 h, 320 g/ha, visual rating after about 3 weeks, read-out: Post-emergence effect at 320 g/ha against MATIN in %.
Assay type: in vivo
Procedure: as §1, §2, §3

SMILES	pest or weed control at 320 g/ha [%]
CCOC(=O)C(Oc1nn(-c2ccccc2F)c(-c2ccc(F)nc2)c1Br)SC (single isomer, unassigned) [Example I-30]	80
COC(=O)C(Oc1nn(-c2ncccc2F)c(-c2ccc(F)nc2)c1Cl)SC (stereo not shown) [Example I-56]	80

The compounds below were run on Setaria viridis (SETVI) in the same assay as above. Conditions: Setaria viridis, 504 h, 320 g/ha, visual rating after about 3 weeks, read-out: Post-emergence effect at 320 g/ha against SETVI in %.
Assay type: in vivo
Procedure: as §1, §2, §3

SMILES	pest or weed control at 320 g/ha [%]
CCOC(=O)C(Oc1nn(-c2ccccc2F)c(-c2ccc(F)nc2)c1Br)SC (single isomer, unassigned) [Example I-30]	80
COC(=O)C(Oc1nn(-c2ncccc2F)c(-c2ccc(F)nc2)c1Cl)SC (stereo not shown) [Example I-56]	90

Each compound was assayed on Avena fatua (AVEFA) in the same assay as above. Conditions: Avena fatua, 504 h, 320 g/ha, visual rating after about 3 weeks, read-out: Post-emergence effect at 320 g/ha against AVEFA in %.
Assay type: in vivo
Procedure: as §1, §2, §3

SMILES	pest or weed control at 320 g/ha [%]
COC(=O)C(Oc1nn(-c2ncccc2F)c(-c2ccc(F)nc2)c1Cl)SC (stereo not shown) [Example I-56]	90

The compounds below were run on Viola tricolor (VIOTR) in the same assay as above. Conditions: Viola tricolor, 504 h, 80 g/ha, read-out: Post-emergence effect against VIOTR.
Assay type: in vivo
Procedure: as §1, §2, §3

SMILES	pest or weed control at 80 g/ha [%]
COC(=O)C(Oc1nn(-c2ncccc2F)c(-c2ccc(F)nc2)c1Cl)SC (stereo not shown) [Example I-56]	80

Same assay, conditions: Viola tricolor, 504 h, 320 g/ha, read-out: Post-emergence effect against VIOTR

SMILES	pest or weed control at 320 g/ha [%]
CCOC(=O)C(Oc1nn(-c2ccccc2F)c(-c2ccc(F)nc2)c1Br)SC (single isomer, unassigned) [Example I-30]	90
COC(=O)C(Oc1nn(-c2ncccc2F)c(-c2ccc(F)nc2)c1Cl)SC (stereo not shown) [Example I-56]	90

The compounds below were run on Lolium rigidum (LOLRI) in the same assay as above. Conditions: Lolium rigidum, 504 h, 320 g/ha, visual rating after about 3 weeks, read-out: Post-emergence effect at 320 g/ha against LOLRI in %.
Assay type: in vivo
Procedure: as §1, §2, §3

SMILES	pest or weed control at 320 g/ha [%]
CCOC(=O)C(Oc1nn(-c2ccccc2F)c(-c2ccc(F)nc2)c1Br)SC (single isomer, unassigned) [Example I-30]	80
COC(=O)C(Oc1nn(-c2ncccc2F)c(-c2ccc(F)nc2)c1Cl)SC (stereo not shown) [Example I-56]	90

Each compound was assayed on Digitaria sanguinalis (DIGSA) in the same assay as above. Conditions: 80 g/ha, visual rating after about 3 weeks.
Assay type: in vivo
Procedure: as §1, §2, §3

SMILES	Post-emergence effect at 80 g/ha against DIGSA in % [%]
CCOC(=O)C(Oc1nn(-c2ccccc2F)c(-c2ccc(F)nc2)c1Br)SC (single isomer, unassigned) [Example I-30]	80

Same assay, conditions: Digitaria sanguinalis, 504 h, 320 g/ha, visual rating after about 3 weeks, read-out: Post-emergence effect at 320 g/ha against DIGSA in %

SMILES	pest or weed control at 320 g/ha [%]
CCOC(=O)C(Oc1nn(-c2ccccc2F)c(-c2ccc(F)nc2)c1Br)SC (single isomer, unassigned) [Example I-30]	90
COC(=O)C(Oc1nn(-c2ncccc2F)c(-c2ccc(F)nc2)c1Cl)SC (stereo not shown) [Example I-56]	80

The compounds below were run on Polygonum convolvulus (POLCO) in the same assay as above. Conditions: Fallopia convolvulus, 504 h, 80 g/ha, visual rating after about 3 weeks, read-out: Post-emergence effect at 80 g/ha against POLCO in %.
Assay type: in vivo
Procedure: as §1, §2, §3

SMILES	pest or weed control at 80 g/ha [%]
COC(=O)C(Oc1nn(-c2ncccc2F)c(-c2ccc(F)nc2)c1Cl)SC (stereo not shown) [Example I-56]	80

Same assay, conditions: Fallopia convolvulus, 504 h, 320 g/ha, visual rating after about 3 weeks, read-out: Post-emergence effect at 320 g/ha against POLCO in %

SMILES	pest or weed control at 320 g/ha [%]
COC(=O)C(Oc1nn(-c2ncccc2F)c(-c2ccc(F)nc2)c1Cl)SC (stereo not shown) [Example I-56]	90

The compounds below were run on Echinochloa crus-galli (ECHCG) in the same assay as above. Conditions: Echinochloa crus-galli, 504 h, 80 g/ha, visual rating after about 3 weeks, read-out: Post-emergence effect at 80 g/ha against ECHCG in %.
Assay type: in vivo
Procedure: as §1, §2, §3

SMILES	pest or weed control at 80 g/ha [%]
CCOC(=O)C(Oc1nn(-c2ccccc2F)c(-c2ccc(F)nc2)c1Br)SC (single isomer, unassigned) [Example I-30]	80
COC(=O)C(Oc1nn(-c2ncccc2F)c(-c2ccc(F)nc2)c1Cl)SC (stereo not shown) [Example I-56]	90

Same assay, conditions: Echinochloa crus-galli, 504 h, 320 g/ha, visual rating after about 3 weeks, read-out: Post-emergence effect at 320 g/ha against ECHCG in %

SMILES	pest or weed control at 320 g/ha [%]
CCOC(=O)C(Oc1nn(-c2ccccc2F)c(-c2ccc(F)nc2)c1Br)SC (single isomer, unassigned) [Example I-30]	80
COC(=O)C(Oc1nn(-c2ncccc2F)c(-c2ccc(F)nc2)c1Cl)SC (stereo not shown) [Example I-56]	90

These compounds were tested on Abutilon theophrasti (ABUTH) in the same assay as above. Conditions: Abutilon theophrasti, 504 h, 80 g/ha, visual rating after about 3 weeks, read-out: Post-emergence effect at 80 g/ha against ABUTH in %.
Assay type: in vivo
Procedure: as §1, §2, §3

SMILES	pest or weed control at 80 g/ha [%]
COC(=O)C(Oc1nn(-c2ncccc2F)c(-c2ccc(F)nc2)c1Cl)SC (stereo not shown) [Example I-56]	80

Same assay, conditions: Abutilon theophrasti, 504 h, 320 g/ha, visual rating after about 3 weeks, read-out: Post-emergence effect at 320 g/ha against ABUTH in %

SMILES	pest or weed control at 320 g/ha [%]
COC(=O)C(Oc1nn(-c2ncccc2F)c(-c2ccc(F)nc2)c1Cl)SC (stereo not shown) [Example I-56]	90

What follows are compounds tested on Pharbitis purpurea (PHBPU) in the same assay as above. Conditions: 20 g/ha, visual rating after about 3 weeks.
Assay type: in vivo
Procedure: as §1, §2, §3

SMILES	Post-emergence effect at 20 g/ha against PHBPU in % [%]
COC(=O)C(Oc1nn(-c2ncccc2F)c(-c2ccc(F)nc2)c1Cl)SC (stereo not shown) [Example I-56]	80

Same assay, conditions: Ipomoea purpurea, 504 h, 80 g/ha, visual rating after about 3 weeks, read-out: Post-emergence effect at 80 g/ha against PHBPU in %

SMILES	pest or weed control at 80 g/ha [%]
COC(=O)C(Oc1nn(-c2ncccc2F)c(-c2ccc(F)nc2)c1Cl)SC (stereo not shown) [Example I-56]	90

Same assay, conditions: Ipomoea purpurea, 504 h, 320 g/ha, visual rating after about 3 weeks, read-out: Post-emergence effect at 320 g/ha against PHBPU in %

SMILES	pest or weed control at 320 g/ha [%]
CCOC(=O)C(Oc1nn(-c2ccccc2F)c(-c2ccc(F)nc2)c1Br)SC (single isomer, unassigned) [Example I-30]	80
COC(=O)C(Oc1nn(-c2ncccc2F)c(-c2ccc(F)nc2)c1Cl)SC (stereo not shown) [Example I-56]	90
